# Measurements published in publication PMC12649535, “Development of New Antimicrobial Peptides by Directional Selection” (Antibiotics, 2025).
# Ends that are not written are not given here.
# How the values were obtained:
# Format in all cases: cell-based
# Bacillus subtilis 168 HT = settings: 16 h
# Source text: (§1) Peptides were synthesized on an automated Liberty Blue synthesizer (CEM Corp., Matthews, NC, USA) using solid-phase Fmoc chemistry with microwave-assisted heating. Two types of resin were selected for peptide synthesis to accommodate different molecular weights. Fmoc-Rink amide aminomethyl-polystyrene resin (ABCR GmbH & Co KG, Karlsruhe, Germany) with a loading capacity of 0.78 mmol/g was used for peptides with a molecular weight of up to 3 kDa. For peptides with a molecular weight exceeding 3 kDa, Fmoc-Rink amide PEG MBHA resin (ABCR GmbH & Co KG, Karlsruhe, Germany) with a loading capacity of 0.48 mmol/g was used. The target products were obtained with a purity of over 95% after purification of the peptides by reversed-phase HPLC on an AKTA Pure 25 M1 system (GE Healthcare Life Sciences, Chicago, IL, USA) equipped with a Zorbax SB-C18 column (Agilent Technologies, Santa Clara, CA, USA) and UV detection. All HPLC-spectra and HRMS-spectra are available at the Supplementary Materials (Figures S1–S23). The antimicrobial activity of synthetic peptides was measured using the standard microdilution method in microtiter plates. Peptides were dissolved in water to a concentration of 1 mM. Cultures of Bacillus subtilis 168 HT and Escherichia coli MG1655 were grown in a shaker at 30 °C in MHB medium (BD Difco, Thermo Fisher Scientific Inc., Waltham, MA, USA) for 16 h. The resulting cultures were diluted 1:50 in fresh MHB medium and grown in a shaker at 37 °C until reaching mid-logarithmic phase. The bacterial cultures were then further diluted in MHB to a concentration of 10^6 CFU/mL.
# (§2) Peptides were serially twofold diluted in MHB in 96-well plates to final concentrations ranging from 100 to 0.2 µM, with a total volume of 50 µL per well. Subsequently, 50 µL of bacterial suspension (10^6 CFU/mL) was added to each well. Plates were incubated overnight at 37 °C. Each experiment included positive controls (melittin) and negative controls (without peptide). Antimicrobial activity was assessed by measuring the optical density at 600 nm (OD600) using a microplate reader AMR-100.
# Escherichia coli MG1655 = settings: MG1655, 16 h
# Source text: as §1, §2
# Expi293F cells = test: Cytotoxicity, MTT assay; settings: Figure 7 and text, 24 h, 200 to 0.0975 µM, NA = no activity within tested concentration range
# Experimental: For the synthesized peptides, we determined the minimum inhibitory concentration (MIC) against B. subtilis (MICBs) and E. coli (MICEc) and measured cytotoxicity (IC90) in Expi293F cells (human embryonic kidney cells) using an MTT assay (Figure 7A–C, Tables S1–S4).
# Peptide cytotoxicity was assessed using the MTT assay on Expi293F cells (human embryonic kidney cells) (Thermo Fisher Scientific, Waltham, MA, USA). Viable cells with active metabolism reduce water-soluble MTT (Abcam, Cambridge, UK) to insoluble formazan, while dead cells lose this ability and produce no signal. The absorbance measured at 600 nm is proportional to the number of living cells. Expi293F cells were seeded in 96-well plates at a density of 1 × 10^5 cells/mL. After 24 h, peptides were added to the wells at final concentrations ranging from 200 to 0.0975 µM. […] Cells were incubated with peptides in a CO2 incubator at 37 °C and 5% CO2 for 24 h. […] Peptide cytotoxicity was evaluated by measuring optical density at 600 nm and 690 nm using a microplate reader AMR-100. Normalized absorbance was defined as (OD600–OD690). The percentage of cell viability was calculated using the formula: % Cell viability = (ODtreated/ODtotal) × 100, where ODtreated is the normalized absorbance of treated cells and ODtotal is the normalized absorbance of non-treated (control) cells.
Substance,MIC B. subtilis (Bacillus subtilis 168 HT) [µM],MIC E. coli (Escherichia coli MG1655) [µM],"IC90 (cytotoxicity, concentration that inhibits 90% of cell growth) (Expi293F cells) [µM]"
"EKRWRRLIFNYF-NH2 [Hm-AMP2, reference compound]",12.5,3.1,–
"SWLSKTAKKLENSAKKRISEGIAIAIQGGPR-NH2 [cecropin, reference compound]",–,0.4,200
EKDWPRRILYCF-NH2 [A2R3P10],50.0,–,–
EKGWLRRIFYCF-NH2 [A2R3P8],6.2,25.0,–
EKGWRRWIFYCF-NH2 [A2R2P3],25.0,50.0,–
SFVCKTVKKMNNSAKKGFREGIALAIQGGPR-NH2 [CR2P8],25.0,6.2,–
SLMFKTVKKMDNSAKKRIREGIAIAIQGGPR-NH2 [CR1P5],–,6.2,–
EKGWRRWIFNYF-NH2 [A2R1P5],6.2,6.2,–
EKGRRRWIFYFF-NH2 [A2R3P7],25.0,12.5,–
SLIFKIVKKMDDIGKKRIREGIAIPLQGGPR-NH2 [CR2P7],–,50.0,–
EKGWRRWIFFSF-NH2 [A2R3P6],12.5,12.5,–
EIGWRRRICNYL-NH2 [A2R2P7],6.2,25.0,–
SLMFKTVKKMDNSVKKRFREGMAIAMQCGPR-NH2 [CR2P9],25.0,3.1,–
SLMFITVKKLDNSSRIRIRVGIAIAIQGGPR-NH2 [CR2P2],25.0,25.0,–
